Data on five compounds can be found in patent publication US20230183241A1, “CRYSTAL OF A HYPOXANTHINE COMPOUND” (Kissei Pharmaceutical Co., Ltd., priority 2020, published 2023).

The structures appear in SMILES notation. Read-outs that look alike come from different tables or passages of the source. A value given as a limit tells only on which side of the number the result lay.

One series is described as follows: Solid stability test. It is filed as physicochemical. To be noted: open condition at 40° C., 1 month; for Amount of the mass change of the compound 1: HPLC area normalization; for Crystal form change: powder X-ray diffraction; for Properties: appearance White powder. The protocol: Test Example 4: Solid Stability Test
Physicochemical stability and chemical stability for crystals of compound 1 (crystal forms I to IV) were examined.
Physicochemical stability: Each crystal was stored under open condition at 40° C. The powder X-ray diffraction of the sample was measured at the initial point and 1 month later, and the change in crystal form was confirmed. The change in properties was also observed at the same time. Chemical stability: Each crystal was stored under open condition at 40° C. The mass of the compound 1 was measured under the following HPLC measurement conditions at the initial point and 1 month later. [HPLC conditions] Detector: Ultraviolet and visible absorptiometer/wavelength: 225 nm
Column: L-column2 ODS, 3 μm, 4.6×150 mm (Chemicals Evaluation and Research Institute)
Column temperature: Constant temperature around 40° C. Flow rate: 1.0 mL/min Mobile phase A: A solution which was prepared with phosphoric acid to pH 2.3 after dissolving potassium dihydrogen phosphate in water to 20 mmol/L Mobile phase B: Acetonitrile Mobile phase ratios 0 to 30 minutes: mobile phase A/mobile phase B=81/19 30 to 50 minutes: mobile phase A/mobile phase B=81/19 to 25/75 50 to 55 minutes: mobile phase A/mobile phase B=25/75 55 to 55.01 minutes: mobile phase A/mobile phase B=25/75 to 81/19 55.01 to 75 minutes: mobile phase A/mobile phase B=81/19 Amount of injection: 5 μL Sample cooler: 4° C. Dissolution solvent: Mixed solution (mobile phase A/acetonitrile=75/25) Sample solution: Sample was dissolved in dissolution solvent and adjusted to about 1.0 mg/mL
Excluding the peaks derived from the blank, the peak areas of the compound 1 and an analogous substance were measured by automatic integration, and the mass of the compound 1 was calculated by area normalization method. Further, the amount of the mass change of the compound 1 after the storage was calculated.

The test system of series [1] is TNBS induced colitis model rat. The series is described as follows: Therapeutic effect in colitis model: suppression of intestinal permeability (FITC). The note with it: 3 mg/kg orally once a day for 3 days, serum FITC. It is filed as in vivo. The protocol: Test Example 2 Therapeutic Effect in Colitis Model
(1) TNBS Induced Colitis Model Rat
Thus, the suppressive effect on the intestinal permeability based on oral administration of the test compound was evaluated as an indicator of medicinal efficacy.
SD male rats: 8-week-old SLC (Japan SLC) were used. Under pentobarbital anesthesia, 300 μL of TNBS (28 mg/mL) which was prepared by 50% ethanol was administered at a point 8 cm from the anus in the large intestine to cause inflammation. To the solvent-treated group was administrated 300 μL of 50% ethanol. Animals were fasted for 48 hours prior to administration of TNBS. The test compound (3 mg/kg) prepared by 0.05% methylcellulose solution was orally administered once a day from the next day, and it was administered for a total of 3 days. After administering for 3 days, 50 mg/kg FITC was orally administered 4 hours after the administration of the test compound. Blood samples were collected from jugular vein under isoflurane anesthesia after 4 hours. The serum was centrifuged and fluorescence intensity was detected by PHERAstar FSX (BMG Labtech) to measure the concentration of FITC permeating into circulating blood through the mesentery. The suppressive rate on the intestinal permeability of the test compound was calculated based on the value of the test substance-free group as 0 and the value of the TNBS-untreated group as 100.

Series [2] in a line: Rat PK study: concentration of compounds in large intestine tissue and plasma. It is filed as in vivo. The note with it: male, SD, 3 mg/kg oral. The protocol: Test Example 3 Concentration of Compounds in Large Intestine Tissue
The test compound (3 mg/kg/5 mL) prepared with 0.05% methylcellulose was orally administered to non-fasted rats (SD, 8-week-old, male, Japan SLC). Blood samples were collected from jugular vein at 0.25, 0.5, 1, 2, 4, 6 and 8 hours after the administration. Laparotomy was performed under isoflurane anesthesia and large intestine was isolated. The collected distal large intestine (about 5 cm) was cut open, and then the large intestine extracted was washed with saline on a dish. After washing, the large intestine was minced with small scissors. About 150 mg thereof was moved to a tube. To the tube was added 100 μL of saline, and the mixture was homogenized using shake master (1000 rpm×30 minutes). Samples were prepared by the addition with quadruple volume of saline as the final volume. The concentrations of the test compound in the large intestine tissue and the plasma were measured through a quantitative analysis using liquid chromatography-mass spectrometry (LC/MS).
As the comparative example, a compound described as example 55 in US2015/0239889 (WO2014/030716) (Compound A) was used.
Symbols in the table have the following meanings. Compound A: comparative example Cmax: maximum plasma concentration of the test compound in the case of oral administration (ng/mL) AUC: area under the plasma test compound concentration-time curve (ng*min/mL) Plasma: plasma test compound concentration after 8 hours (ng/mL) Colon: concentration of the test compound in the large intestine tissue after 8 hours (ng/g) C/P: ratio of the above Colon and Plasma

The target in another series is T1, human PHD2184-418 (Homo sapiens, UniProt Q9GZT9).
T1 construct: containing amino acid residues 184 to 418 of the protein represented by CAC42509; histidine tag (N); made in house; host or cells: E. coli BL21 (DE3), pET-30a(+) vector
The series is described as follows: PHD2 inhibitory test (fluorescence polarization, FITC-labeled HIF-1α556-574). The note with it: human PHD2 binding inhibitory activity; 2 μM 2-oxoglutarate, 37° C., 60 minutes. How it is done:
Test Example 1 PHD2 Inhibitory Test
(1) Expression and preparation of human PHD2184-418
Human PHD2184-418 containing amino acid residues 184 to 418 of the protein represented by CAC42509 (GenBank accession ID) was expressed and prepared by the following method.
An expression construct of human PHD2184-418 containing N-terminal histidine tag was introduced into pET-30α (+) vector, and the sequence was confirmed. This vector was introduced into BL21 (DE3) strain and cultured at 37° C. in LB medium containing antibiotics. After culturing, a cell lysis solution was added to the cells, and then the cells were disrupted and suspended by sonication. The disrupted suspension was centrifuged and the supernatant was purified by Ni column to give human PHD2184-418.
Human HIF-1α556-574 (FITC-labeled HIF-1α556-574), containing FITC-Ahx at the N-terminal of HIF-1α556-574 containing amino acid residues 556 to 574 (partial peptide) of human HIF-1α was used as a substrate. Using FITC-labeled HIF-1α556-574, the competitive inhibition between 2-oxoglutarate and the test compound (PHD inhibitor) was evaluated based on the change in fluorescence polarization of FITC-labeled HIF-1α556-574 by the following method.
An enzyme (human PHD2184-418) and the substrate were diluted with an assay buffer (pH 7.4) containing 10 mM HEPES, 150 mM NaCl, 10 μM MnCl2-4H2O, 2 μM 2-oxoglutarate and 0.05% Tween-2θ. […]
(In general: Fluorescence polarisation rises when a labelled molecule tumbles more slowly, as on binding a larger partner.)

T1 sequence (Q9GZT9 184-418): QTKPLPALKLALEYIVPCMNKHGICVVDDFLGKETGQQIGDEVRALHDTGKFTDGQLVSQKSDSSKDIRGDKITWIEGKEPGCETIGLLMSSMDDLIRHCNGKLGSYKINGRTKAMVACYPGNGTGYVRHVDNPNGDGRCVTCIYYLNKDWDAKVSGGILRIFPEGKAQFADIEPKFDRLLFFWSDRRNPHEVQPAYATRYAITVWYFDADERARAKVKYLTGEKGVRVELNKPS

With `COc1ccc(Cn2cnc3nc(-n4cc(C(=O)O)cn4)[nH]c(=O)c32)cc1` [Crystal form I of the compound 1, 1-(7-(4-Methoxybenzyl)-6-oxo-6,7-dihydro-1H-purin-2-yl)-1H-pyrazole-4-carboxylic acid], in “Solid stability test”, the “Amount of the mass change of the compound 1” value is −0.05%, the Crystal form change result is reported as “No change” and the Properties result is given as “no change”.

Take `COc1ccc(Cn2cnc3nc(-n4cc(C(=O)O)cn4)[nH]c(=O)c32)cc1` [Compound 1, 1-(7-(4-Methoxybenzyl)-6-oxo-6,7-dihydro-1H-purin-2-yl)-1H-pyrazole-4-carboxylic acid]: the “Inhibition (suppressive rate on the intestinal permeability, mean)” value in series [1] was 83%. In addition, the concentration at 8 h in series [2] (large intestine tissue (distal), read-out: Colon: concentration in the large intestine tissue after 8 hours) was 209 ng/g; in series [2] (plasma, read-out: Plasma: plasma test compound concentration after 8 hours), less than 1 ng/mL. Also, the Kp at 8 h in series [2] (large intestine tissue / plasma, read-out: C/P: ratio of Colon and Plasma) is greater than 209. In addition, the IC50 (commonly the midpoint of a concentration-inhibition curve) at human PHD2184-418 is 440 nM.

`COc1ccc(Cn2cnc3nc(-n4cc(C(=O)O)cn4)[nH]c(=O)c32)cc1` [Crystal form II of the compound 1, 1-(7-(4-Methoxybenzyl)-6-oxo-6,7-dihydro-1H-purin-2-yl)-1H-pyrazole-4-carboxylic acid]: in the series “Solid stability test”, the “Amount of the mass change of the compound 1” value is reported as 0.03%, the Crystal form change entry is listed as “No change” and the Properties entry was “no change”.

Turning to `COc1ccc(Cn2cnc3nc(-n4cc(C(=O)O)cn4)[nH]c(=O)c32)cc1` [Crystal form III of the compound 1, 1-(7-(4-Methoxybenzyl)-6-oxo-6,7-dihydro-1H-purin-2-yl)-1H-pyrazole-4-carboxylic acid], in the series “Solid stability test”, the “Amount of the mass change of the compound 1” value is recorded as 0.00%, the Crystal form change result is on record as “No change” and the Properties result was “no change”.

As for `COc1ccc(Cn2cnc3nc(-n4cc(C(=O)O)cn4)[nH]c(=O)c32)cc1` [Crystal form IV of the compound 1, 1-(7-(4-Methoxybenzyl)-6-oxo-6,7-dihydro-1H-purin-2-yl)-1H-pyrazole-4-carboxylic acid], in “Solid stability test”, the “Amount of the mass change of the compound 1” value worked out at 0.00%, the Crystal form change entry is “No change” and the Properties result is recorded as “no change”.
